Experimental data from patent US20120165223A1 (priority 2006, published 2012).

Tested on: glucosidase
Assay: Fecal enzyme activity of flora of HFA mice: glucosidase
Assay type: in vivo, human intestinal normal bacterial flora
Description: For the one week, the feces were picked free from germs with the interval of two to three days. The feces collected at the day of colistin sulfate administration, 2nd, 4th, 7th, 10th, 13th, 17th and 20th days and at 3rd and 5th day after the stop of medication are put in an encapsulated tube and moved to an anaerobic chamber immediately and the activity of glucuomidase, glucosidase, nitrate reductase and azoreductase produced by the human intestinal normal bacterial flora is measured. As a result glucuronidase is decreased throughout the period of administration and the withdrawal period in comparison with control groups and is not recovered even at the 5th day since the medication is stopped. Glucosidase is increased during the medication period in comparison with the control groups. Nitrate reductase is increased in comparison with the control group at the start day of administration and the 2nd day of the medication but is recovered. Azoreductase is increased in comparison with the control group until the 7th day of medication and then decreased.

colistin sulfate
Glucosidase activity, recovery (5th day since the medication is stopped): not recovered | Glucosidase activity in comparison with the control groups (during the medication period): increased
